Holding throughout (assay): MIC in microtiter, antibacterial spectrum in vitro
Format in all cases: cell-based

For one assay, the system named is E cloacae P 99 1321 E. The note with it: Penassay broth (Difco), overnight incubation at 37°C. As to the method:
(§1) MICS (minimum inhibitory concentrations) were determined in "microtiter" using Brain-heart infusion broth (Difco) or Penassay broth (Difco) for gram-positive or gram-negative bacteria, respectively. S. pyogenes and S. pneu- moniae were tested in Todd-Merwitt broth (Difco).
(§2) The inoculum was overnight cultures diluted to obtain 10^3 or […] respectively in the case of gram-positive or gram-negative strains.
(§3) The MIC was defined as the lowest concentration of antibiotic which […] visible growth after overnight incubation at 37 °C.

For a further assay, the system named is E. coli SKF 12140. The following applies: Penassay broth (Difco), overnight incubation at 37°C. As to the method:
as §1, §2, §3

The test system of another assay is K. aerogenes 1522 E. The following applies: Penassay broth (Difco), overnight incubation at 37°C. The method, then: as §1, §2, §3
The test system of another assay is S. aureus Smith. The note with it: Brain-heart infusion broth (Difco), overnight incubation at 37°C. As to the method: as §1, §2, §3
Assay [1] has as its system S. pyogenes c 203 SKF 13400. The following applies: Todd-Merwitt broth (Difco), overnight incubation at 37°C. As to the method: as §1, §2, §3
The next assay deals with S. aureus ATCC 6538. The following applies: Brain-heart infusion broth (Difco), overnight incubation at 37°C. As to the method:
as §1, §2, §3

Another assay concerns P. vulgaris ATCC 881. The following applies: Penassay broth (Difco), overnight incubation at 37°C. The method, then: as §1, §2, §3
A further assay relates to S. pneumoniae UC 41. The note with it: Todd-Merwitt broth (Difco), overnight incubation at 37°C. The method, then:
as §1, §2, §3

The subject of the next assay is E. cloacae 45. The following applies: Penassay broth (Difco), overnight incubation at 37°C. As to the method: as §1, §2, §3
The test system of a further assay is S. pyogenes c 203 ISM. The following applies: Todd-Merwitt broth (Difco), overnight incubation at 37°C. The method, then: as §1, §2, §3

The term MIC denotes the smallest concentration in the dilution series that meets the test's criterion for growth inhibition. Low readings indicate greater potency, high ones weaker potency. Take “Trans-(±)-6-ethyl-7-oxo-2-[[2-(2-(2-pyrimidinyl)ethy]-thio]-1-azabicyclo[3.2.0]hept-2-en-2-carboxylic acid S-oxide, (4-nitrophenyl)methyl ester [Example 23]”: the minimum inhibitory concentration (MIC) in the assay on E cloacae P 99 1321 E was 3.1 mg/L; against E. coli SKF 12140 it was 6.2 mg/L; in the assay on K. aerogenes 1522 E it was 3.1 mg/L; with S. aureus Smith, 0.1 mg/L; in assay [1], 0.05 mg/L; against S. aureus ATCC 6538, 0.1 mg/L. The MIC stood at 3.1 mg/L in the assay on P. vulgaris ATCC 881, 0.05 mg/L in the assay on S. pneumoniae UC 41 and 3.1 mg/L in the assay with E. cloacae 45.

As for “Trans-(±)-6-ethyl-7-oxo-2-[[2-(2-pyridylamino)ethyl]-thio]-1-azabicyclo[3.2.0]hept-2-en-2-carboxylic acid S-oxide, (4-nitrophenyl)methyl ester [Example 22]”, the MIC against S. pyogenes c 203 ISM is 0.1 mg/L; in the assay with E cloacae P 99 1321 E it was 25 mg/L; against E. coli SKF 12140, 25 mg/L; with K. aerogenes 1522 E, 12.5 mg/L; in the assay with S. aureus ATCC 6538, 0.1 mg/L; in the assay on P. vulgaris ATCC 881 it was 3.12 mg/L. For the same substance, the figures for the minimum inhibitory concentration (MIC) against S. pneumoniae UC 41 and in the assay with E. cloacae 45 were 0.05 mg/L and 25 mg/L, respectively.

With “Trans-(±)-6-ethyl-7-oxo-2-[[2-[(2-thiazolyl)amino]-ethyl]thio]-1-azabicyclo]3.2.0]hept-2-en-2-carboxylic acid potassium salt [Example 24]”, the MIC in the assay with E cloacae P 99 1321 E amounted to 12.5 mg/L; in the assay with E. coli SKF 12140, 12.5 mg/L; against K. aerogenes 1522 E, 6.2 mg/L; in the assay with S. aureus Smith it was 0.4 mg/L; in assay [1], 0.1 mg/L; with S. aureus ATCC 6538 it was 0.1 mg/L. Further, the results for the MIC with P. vulgaris ATCC 881, with S. pneumoniae UC 41 and in the assay on E. cloacae 45 were 6.2 mg/L, 0.1 mg/L and 6.2 mg/L, respectively.

The record behind these values is patent EP0093915A1, “Novel beta-lactam derivatives” (GRUPPO LEPETIT S.P.A., priority 1982, dated 1983).
